Laboratory results from patent US20130225839A1, “PREPARATION METHOD OF FOSAMPRENAVIR DERIVATIVES AND RELEVANT INTERMEDIATE THEREOF” (ZHEJIANG JIUHOU PHARMA SCIENCE & TECHNOLOGY CO., LTD., priority 2010, published 2013).
≈ marks a conversion by molar mass, not a printed value.

What was measured:
[1] = solubility in water or ethanol; format: physicochemical
[2] = cited from earlier work

With `CC(C)CN(C[C@@H](OP(=O)([O-])[O-])[C@H](Cc1ccccc1)NC(=O)O[C@H]1CCOC1)S(=O)(=O)c1ccc([N+](=O)[O-])cc1.[Na+].[Na+]` [sodium (3S)4etrahydrofuran-3-yl(1S,2R)-3-[(4-nitrophenyl)sulfonyl](isobutyl)amino-1-benzyl-2-(phosphonooxy)propyl-carbamate] the solubility in ethanol ([1]; ethanol) was “soluble” and the solubility in water ([1]; water) was “soluble”.
In the case of `CC(C)CN(C[C@@H](O)[C@H](Cc1ccccc1)NC(=O)O[C@H]1CCOC1)S(=O)(=O)c1ccc(N)cc1` [APV, amprenavir], the “solubility in water at 25° C.” value [2] is listed as 40 µg/mL (≈ 79.1 µM).
